Measurements: patent US10806795B2, “Bispecific anti-hapten/anti-blood brain barrier receptor antibodies, complexes thereof and their use as blood brain barrier shuttles” (Hoffmann-La Roche Inc., priority 2014, dated 2020)
pKd: −log10 of the molar value. “Also recorded” adds a separate entry of the source. Starred links: 1 amine or outer side, 2 acyl side, 3 side chain; linkers in the order of their positions; H or OH if unused. Non-standard residues stand in square brackets, D forms with d. No end group written: not given here. Pqa = (4-oxo-6-piperazin-1-yl-4H-quinazolin-3-yl)-acetic acid in the backbone, O=C(Cn1cnc2ccc(N3CCN([*:1])CC3)cc2c1=O)[*:2]; NMeR = CN[C@@H](CCCNC(=N)N)C(=O)O

Key:
NPY1R = target: T1, NPY1R (Homo sapiens, UniProt P25929); assay: Effect on the Y2Receptor family: NPY1R
T1 sequence (P25929 1-384): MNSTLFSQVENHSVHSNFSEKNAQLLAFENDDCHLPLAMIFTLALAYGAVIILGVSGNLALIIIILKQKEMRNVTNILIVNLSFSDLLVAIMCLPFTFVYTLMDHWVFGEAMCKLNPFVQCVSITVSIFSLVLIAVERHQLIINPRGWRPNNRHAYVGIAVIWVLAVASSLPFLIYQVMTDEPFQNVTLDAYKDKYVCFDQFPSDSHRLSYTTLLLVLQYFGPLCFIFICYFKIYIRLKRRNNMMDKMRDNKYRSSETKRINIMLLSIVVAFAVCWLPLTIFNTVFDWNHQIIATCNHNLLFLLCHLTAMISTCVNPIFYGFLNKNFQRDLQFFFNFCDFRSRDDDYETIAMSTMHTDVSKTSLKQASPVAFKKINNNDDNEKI

NPY5R = target: T2, NPY5R (Homo sapiens, UniProt Q15761); assay: Effect on the Y2Receptor family: NPY5R
T2 sequence (Q15761 1-445): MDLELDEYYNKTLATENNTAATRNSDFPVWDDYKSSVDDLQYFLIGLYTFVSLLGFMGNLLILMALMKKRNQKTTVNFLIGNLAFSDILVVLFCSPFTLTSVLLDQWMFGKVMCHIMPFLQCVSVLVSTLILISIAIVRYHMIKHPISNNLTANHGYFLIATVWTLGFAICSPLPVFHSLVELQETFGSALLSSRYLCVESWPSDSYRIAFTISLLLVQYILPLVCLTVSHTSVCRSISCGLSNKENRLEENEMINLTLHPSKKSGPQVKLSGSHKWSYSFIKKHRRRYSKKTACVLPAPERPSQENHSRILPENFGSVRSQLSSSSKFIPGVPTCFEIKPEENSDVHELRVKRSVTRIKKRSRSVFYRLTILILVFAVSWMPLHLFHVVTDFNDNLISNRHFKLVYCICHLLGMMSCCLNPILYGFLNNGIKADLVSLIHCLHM

NPY4R = NPY4R (Homo sapiens, UniProt P50391); assay: Effect on the Y2Receptor family: NPY4R
NPY2R = target: T3, NPY2R (Homo sapiens, UniProt P49146); assay: Effect on the Y2Receptor family: NPY2R
T3 sequence (P49146 1-381): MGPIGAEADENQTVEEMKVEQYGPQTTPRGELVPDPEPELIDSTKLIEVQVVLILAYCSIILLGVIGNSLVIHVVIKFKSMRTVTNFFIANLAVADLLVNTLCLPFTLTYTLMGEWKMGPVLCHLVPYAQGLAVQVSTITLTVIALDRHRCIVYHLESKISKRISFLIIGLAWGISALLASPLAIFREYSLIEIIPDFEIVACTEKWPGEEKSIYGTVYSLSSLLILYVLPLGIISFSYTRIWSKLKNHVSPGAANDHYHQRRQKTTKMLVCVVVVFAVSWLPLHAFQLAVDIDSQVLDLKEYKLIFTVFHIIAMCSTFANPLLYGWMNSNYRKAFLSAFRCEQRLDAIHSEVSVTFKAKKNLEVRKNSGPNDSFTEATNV

[1] = target: anti-helicar motif amino acid sequence antibody; assay: Binding [Kd] of PYY peptides by anti-helicar motif amino acid sequence antibody
[2] = Serum stability of digoxigenylated polypeptide, free or antibody-complexed (Western Blot-related assay of serum); type: in vivo, mice (strain NMRI); conditions: 32.1 nmol, serum 0.08 h, 2 h, 4 h, 24 h, listed as non-complexed polypeptide
Description: Serum samples were stored at −80° C.
The determination of the amount of digoxigenylated peptide in the serum at the given time points was difficult compared to the detection of Dig-Cy5 as no direct means to detect the polypeptide in serum samples was available. Therefore, a Western Blot-related assay to detect digoxigenylated peptide in serum was established. In a first step, the serum samples were separated on reducing SDS-PAGE. Because sample preparation included exposure of the serum to high concentrations of SDS and reducing agents, complexed Dig-polypeptide conjugates can become released from the (completely denatured/unfolded) anti-digoxigenin antibody, whereas covalent conjugates remained bound. To mediate the release of the polypeptide from the non-covalent antibody complex and separate the individual components by SDS-PAGE, 2 μl of each serum sample was diluted in 18 μl 20 mM histidine/140 mM NaCl pH 6.0, mixed with 6.7 μl of 4×LDS sample buffer and 3 μl of 10× sample reducing agent (NuPAGE, Invitrogen) for 5 min at 95° C. As a control, 2 μl of serum of an untreated mouse of the same strain was used. […] Digoxigenylated polypeptides were subsequently detected on the membrane with an anti-digoxigenin antibody. […] Chemiluminescence was detected with the Lumilmager F1 (Roche) with an exposure time of 20 min.

[3] = set-up: species or system mice; conditions: mouse, in vivo
Excerpt: The control group was not pre-injected with the anti-biotin antibody.

Sequence of NPY4R (P50391 whole entry, species assumed): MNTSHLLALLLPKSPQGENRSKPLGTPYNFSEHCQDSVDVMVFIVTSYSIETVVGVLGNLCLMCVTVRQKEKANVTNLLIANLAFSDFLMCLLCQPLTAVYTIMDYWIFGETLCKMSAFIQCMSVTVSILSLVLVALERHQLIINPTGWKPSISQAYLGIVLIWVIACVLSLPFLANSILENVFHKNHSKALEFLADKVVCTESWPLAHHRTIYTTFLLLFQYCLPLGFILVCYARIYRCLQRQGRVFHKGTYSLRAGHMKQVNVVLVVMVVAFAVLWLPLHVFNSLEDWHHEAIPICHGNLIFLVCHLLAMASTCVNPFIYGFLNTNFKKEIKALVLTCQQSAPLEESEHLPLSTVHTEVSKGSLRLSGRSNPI

Row | NPY1R (NPY1R) | NPY5R (NPY5R) | NPY4R (NPY4R) | NPY2R (NPY2R) [nM] | pKd [1] | Compound | presence/amount of the digoxigenin polypeptide in murine serum [2] | serum half-life and exposure levels [3]
1 | in- | in- | in- | 1.0 | – | Ac-Ile-Lys-Pqa-Arg-His-Tyr-Leu-Asn-Trp-Val-Thr-Arg-Gln-(NMe)-Arg-Try-NH2 * 4 HOAc (Ac-IK[Pqa]RHYLNWVTRQ[NMeR]Y-NH2; also: 4 HOAc salt) | – | –
2 | – | in- | in- | 6.38 | 7.92 | IKPEAPGEDASPEAHLANEVARLHYLNLVTRQRY-NH2 [PYY_helicar] | – | –
3 | – | – | – | – | – | CC[C@H](C)[C@H](NC(C)=O)C(=O)N[C@@H](CCCCNC(=O)CCOCCOCCOCCNC(=O)CO[C@H]1CC[C@@]2(C)[C@H](CC[C@@H]3[C@@H]2C[C@@H](O)[C@]2(C)[C@@H](C4=CC(=O)OC4)CC[C@]32O)C1)C(=O)N1CCN(c2ccc3ncn(CC(=O)N[C@@H](CCCNC(=N)N)C(=O)N[C@@H](Cc4c[nH]cn4)C(=O)N[C@@H](Cc4ccc(O)cc4)C(=O)N[C@@H](CC(C)C)C(=O)N[C@@H](CC(N)=O)C(=O)N[C@@H](Cc4c[nH]c5ccccc45)C(=O)N[C@H](C(=O)N[C@H](C(=O)N[C@@H](CCCNC(=N)N)C(=O)N[C@@H](CCC(N)=O)C(=O)N(C)[C@@H](CCCNC(=N)N)C(=O)N[C@@H](Cc4ccc(O)cc4)C(N)=O)[C@@H](C)O)C(C)C)c(=O)c3c2)CC1 [Ac-PYY(PEG3-Dig)] | barely any signal associable to the small polypeptide was detectable even at the earliest time point; also recorded: very short half-life in the serum of mice | –
4 | – | – | – | – | – | Biotin-O2Oc-Ser-O2Oc-DADOO-Cy5 [Biotin-Cy5] | – | eliminated with a low serum half-life and low exposure levels
